{
  "source": "patent US6472424B1",
  "about": "“Stabilized antimicrobial compositions containing halopropynyl compounds and benzylidene camphors” (Troy Technology Corporation, Inc., priority 2000, dated 2002)",
  "assay": "Light-induced yellowing of IPBC-containing white test paint film after UV exposure",
  "type": "physicochemical",
  "conditions": "for effectiveness of the UV absorber in inhibiting degradation/yellowing of the IPBC: same test, assessment in words compared to the blank; for Δb value (difference in yellowing between blank paint and candidate paint sample): styrenated acrylic white house paint, IPBC 0.3%, formulation 20% IPBC / 40% UV absorber / 40% N-methyl pyrrolidone, paint film exposed to 340 nm UV radiation for four hours",
  "method": "In the following examples a styrenated acrylic white house paint was used as the test medium to measure the effect of sunlight on the degradation of IPBC in various IPBC-containing compositions. The test paint composition was prepared by adding ingredients 2 through 6 slowly to a mixer containing water (ingredient 1). After mixing the composition for about 10 minutes, ingredients 7 through 11 were added, and mixing was continued until a smooth dispersion was obtained. Then the final two ingredients were added. Additional water can be added to obtain a desired viscosity.\nIn the following examples, a number of liquid formulations were prepared, each containing (1) 20% by weight IPBC (Troysan ® Polyphase® P-100), (2) 40% by weight of one of the UV absorbers indicated in each example which follows, and (3) 40% by weight of N-methyl pyrrolidone as a liquid vehicle. Each formulation was then incorporated into the white test paint by mixing in an amount sufficient to provide a test paint having IPBC present at a level of 0.3%. The paint formulations containing IPBC and UV absorbers were then applied on a Leneta chart with help of a 3 mil Bird type applicator. The paint film was allowed to dry for 10-15 minutes and then sprayed with a clear non-yellowing varnish (-3 mils), namely, Kamar Varnish 1312. The varnish was obtained from Krylon Products Group, The Specialty Division, Division of Sherwin-Williams Company, Ohio. The object of the varnish was to trap any of the chromophores formed during subsequent UV light exposure and to assure a short and reproducible test for accessing light-induced yellowing.\nThe paint film thus produced was exposed to 340 nm UV radiation for four hours and the yellowing was measured by Microflash 200D or Byk Handy Color measurement device. The difference in yellowing between a blank (the white test paint without fungicide) and the candidate paint sample, Δb, was recorded and used as the response for each test.",
  "data": [
    {"molecule": "Cc1ccccc1C=C1C(=O)C2(C)CCC1C2(C)C", "note": "(stereo not drawn) [3-(2-methylbenzylidene)camphor]", "values": [
      {"measurement": "effectiveness of the UV absorber in inhibiting degradation/yellowing of the IPBC", "value": "reasonably effective"},
      {"measurement": "Δb value (difference in yellowing between blank paint and candidate paint sample)", "value": 3.4}
    ]},
    {"molecule": "CC12CCC(C(=Cc3ccc4c(c3)OCCO4)C1=O)C2(C)C", "note": "(stereo not drawn) [3-(3,4-dioxoethylenebenzylidene)camphor]", "values": [
      {"measurement": "effectiveness of the UV absorber in inhibiting degradation/yellowing of the IPBC", "value": "effective in inhibiting degradation of the IPBC"},
      {"measurement": "Δb value (difference in yellowing between blank paint and candidate paint sample)", "value": 2.4}
    ]},
    {"molecule": "CC12CCC(C(=Cc3cccc(Cl)c3)C1=O)C2(C)C", "note": "(stereo not drawn) [3-(3-chlorobenzylidene)camphor]", "values": [
      {"measurement": "effectiveness of the UV absorber in inhibiting degradation/yellowing of the IPBC", "value": "reasonably effective"},
      {"measurement": "Δb value (difference in yellowing between blank paint and candidate paint sample)", "value": 3.3}
    ]},
    {"molecule": "Cc1cccc(C=C2C(=O)C3(C)CCC2C3(C)C)c1", "note": "(stereo not drawn) [3-(3-methylbenzylidene)camphor]", "values": [
      {"measurement": "effectiveness of the UV absorber in inhibiting degradation/yellowing of the IPBC", "value": "effective in inhibiting degradation of the IPBC"},
      {"measurement": "Δb value (difference in yellowing between blank paint and candidate paint sample)", "value": 2.7}
    ]},
    {"molecule": "CC12CCC(C(=Cc3ccc(Br)cc3)C1=O)C2(C)C", "note": "(stereo not drawn) [3-(4-bromobenzylidene)camphor]", "values": [
      {"measurement": "effectiveness of the UV absorber in inhibiting degradation/yellowing of the IPBC", "value": "reasonably effective"},
      {"measurement": "Δb value (difference in yellowing between blank paint and candidate paint sample)", "value": 3.6}
    ]},
    {"molecule": "CCCCOc1ccc(C=C2C(=O)C3(C)CCC2C3(C)C)cc1", "note": "(stereo not drawn) [3-(4-butoxybenzylidene)camphor]", "values": [
      {"measurement": "effectiveness of the UV absorber in inhibiting degradation/yellowing of the IPBC", "value": "very effective"},
      {"measurement": "Δb value (difference in yellowing between blank paint and candidate paint sample)", "value": 1.8}
    ]},
    {"molecule": "CCOc1ccc(C=C2C(=O)C3(C)CCC2C3(C)C)cc1", "note": "(stereo not drawn) [3-(4-ethoxybenzylidene)camphor]", "values": [
      {"measurement": "effectiveness of the UV absorber in inhibiting degradation/yellowing of the IPBC", "value": "very effective"},
      {"measurement": "Δb value (difference in yellowing between blank paint and candidate paint sample)", "value": 1.3}
    ]},
    {"molecule": "CC(C)c1ccc(C=C2C(=O)C3(C)CCC2C3(C)C)cc1", "note": "(stereo not drawn) [3-(4-isopropylbenzylidene)camphor]", "values": [
      {"measurement": "effectiveness of the UV absorber in inhibiting degradation/yellowing of the IPBC", "value": "reasonably effective"},
      {"measurement": "Δb value (difference in yellowing between blank paint and candidate paint sample)", "value": 3.5}
    ]},
    {"molecule": "COc1ccc(C=C2C(=O)C3(C)CCC2C3(C)C)cc1", "note": "(stereo not drawn) [3-(4-methoxybenzylidene)camphor]", "values": [
      {"measurement": "effectiveness of the UV absorber in inhibiting degradation/yellowing of the IPBC", "value": "very effective"},
      {"measurement": "Δb value (difference in yellowing between blank paint and candidate paint sample)", "value": 1.3}
    ]},
    {"molecule": "Cc1ccc(C=C2C(=O)C3(C)CCC2C3(C)C)cc1", "note": "(stereo not drawn) [3-(4-methylbenzylidene)camphor]", "values": [
      {"measurement": "effectiveness of the UV absorber in inhibiting degradation/yellowing of the IPBC", "value": "effective in inhibiting degradation of the IPBC"},
      {"measurement": "Δb value (difference in yellowing between blank paint and candidate paint sample)", "value": 2.5}
    ]},
    {"molecule": "CCCCNC(=O)OCC#CI", "note": "[IPBC, 3-iodo-2-propynyl butyl carbamate, reference compound]", "values": [
      {"measurement": "effectiveness of the UV absorber in inhibiting degradation/yellowing of the IPBC", "value": "a significant yellow color develops"},
      {"measurement": "Δb value (difference in yellowing between blank paint and candidate paint sample)", "value": 7.1}
    ]},
    {"molecule": "CC12CCC(C(=Cc3ccccc3)C1=O)C2(C)C", "note": "(stereo not drawn) [benzylidenecamphor]", "values": [
      {"measurement": "effectiveness of the UV absorber in inhibiting degradation/yellowing of the IPBC", "value": "effective in inhibiting degradation of the IPBC"},
      {"measurement": "Δb value (difference in yellowing between blank paint and candidate paint sample)", "value": 2.8}
    ]}
  ]
}
